According to ChEMBL document CHEMBL1125631, “Adenosine deaminase inhibitors: synthesis and structure-activity relationships of imidazole analogues of erythro-9-(2-hydroxy-3-nonyl)adenine” (J Med Chem, 1991):

target: T1, Adenosine deaminase (Bos taurus, UniProt P56658); experiment: Inhibition of calf intestinal adenosine deaminase
T1 sequence (P56658 whole entry): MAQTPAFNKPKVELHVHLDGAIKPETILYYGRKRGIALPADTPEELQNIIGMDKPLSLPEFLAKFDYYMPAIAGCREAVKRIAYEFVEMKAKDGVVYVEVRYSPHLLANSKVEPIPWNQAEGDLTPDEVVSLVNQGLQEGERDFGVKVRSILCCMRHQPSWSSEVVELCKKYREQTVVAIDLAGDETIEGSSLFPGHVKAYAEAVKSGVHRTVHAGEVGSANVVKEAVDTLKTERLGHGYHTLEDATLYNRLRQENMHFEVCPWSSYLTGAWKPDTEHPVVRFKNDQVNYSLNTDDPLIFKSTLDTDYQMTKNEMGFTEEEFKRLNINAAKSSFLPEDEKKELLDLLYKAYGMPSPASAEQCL

| Ki | SMILES |
| --- | --- |
| 0.0353 µM | CCCCCCC(C(C)O)n1cnc(C(N)=O)c1 (stereo unspecified) |
| 1.04 µM | CCCCCCC(C(C)O)n1cnc(C(N)=O)c1N (stereo unspecified) |
| 16 µM | CCCCCCC(C(C)O)n1cnc(C(=O)NCCC)c1 (stereo unspecified) |
| 0.368 µM | CCCCCCC(C(C)O)n1cnc(C(=O)NC)c1 (stereo unspecified) |
| 17.9 µM | CCCCCCC(C(C)O)n1cnc(C(=O)NCC)c1 (stereo unspecified) |
| 32.1 µM | CCCCCCC(C(C)O)n1cnc(C(=O)NC[C@@H](C)O)c1 (stereo partly specified) |
| 2.52 µM | CCCCCCC(C(C)O)n1cnc(CO)c1 (stereo unspecified) |
| 6.9 µM | CCCCCCC(C(C)O)n1cnc(C(=O)NC[C@H](C)O)c1 (stereo partly specified) |
| 10.6 µM | CCCCCCC(C(C)O)n1cnc(C(=N)N)c1N (stereo unspecified) |
| 86 µM | CCCCCCC(C(C)O)n1cnc(C(=O)NCc2ccccc2)c1 (stereo unspecified) |
| 347 µM | CCCCCCC(C(C)O)n1cnc(C(=O)OCC)c1N (stereo unspecified) |
| 36.3 µM | CCCCCCC(C(C)O)n1cnc(C(=O)N(C)C)c1 (stereo unspecified) |
| 41.1 µM | CCCCCCC(C(C)O)n1cnc(C(=O)NC2CCCC2)c1 (stereo unspecified) |
| 2.56 µM | CCCCCCC(C(C)O)n1cnc(C(=N)N)c1 (stereo unspecified) |
| 39 µM | CCCCCCC(C(C)O)n1cnc(C(=O)O)c1 (stereo unspecified) |
| 4.02 µM | CCCCCCC(C(C)O)n1cnc(CN)c1 (stereo unspecified) |
| 66 µM | CCCCCCC(C(C)O)n1cnc(C(=O)OCC)c1 (stereo unspecified) |
| 110 µM | Nc1cccc2c1ncn2C1O[C@H](CO)[C@@H](O)[C@H]1O (stereo partly specified) |

| SMILES | Ki |
| --- | --- |
| CCCCCCC(C(C)O)n1cnc(C(N)=O)c1Cl (stereo unspecified) | 0.126 µM |
| CCCCCCC(C(C)O)n1cnc(C(=O)NCCO)c1 (stereo unspecified) | 0.93 µM |
| CCCCCCC(C(C)O)n1cnc(C(=N)S)c1 (stereo unspecified) | 0.0471 µM |

target: T1, Adenosine deaminase; experiment: Inhibition constant against calf intestinal adenosine deaminase; Not active

| Ki | SMILES |
| --- | --- |
| Not Active | N=C(N)c1cn(C2O[C@H](CO)[C@@H](O)[C@H]2O)cn1 (stereo partly specified) |
| Not Active | N=C(N)c1ncn(C2O[C@H](CO)[C@@H](O)[C@H]2O)c1N (stereo partly specified) |
| Not Active | Nc1ccnc2c1ccn2C1O[C@H](CO)[C@@H](O)[C@H]1O (stereo partly specified) |

| SMILES | Ki |
| --- | --- |
| NC(=O)c1ccn(C2O[C@H](CO)[C@@H](O)[C@H]2O)c1 (stereo partly specified) | Not Active |
| Nc1ncnc2c1ccn2[C@@H]1O[C@H](CO)[C@@H](O)[C@H]1O [TUBERCIDIN] | Not Active |
